# Experimental data taken from patent US8183371B2, “Pyrazines as delta opioid receptor modulators” (Janssen Pharmaceutica NV, priority 2009, dated 2012).
# Like-named read-outs stand apart in the source and are kept apart here.
# What was measured:
# delta opioid receptor = biological target: T1, delta opioid receptor (Rattus norvegicus, UniProt P33533); assay: Rat brain delta opioid receptor binding assay
# T1 construct: from tissue; host or cells: forebrain of male Wistar rats
# Experimental: Procedure: Male, Wistar rats (150-250 g, VAF, Charles River, Kingston, N.Y.) were killed by CO2, and their brains were removed and placed immediately in ice cold Tris HCl buffer (50 mM, pH 7.4). The forebrains were separated from the remainder of the brain by a coronal transection, beginning dorsally at the colliculi and passing ventrally through the midbrain-pontine junction. After dissection, the forebrains were homogenized in Tris buffer in a Teflon®-glass homogenizer. The homogenate was diluted to a concentration of 1 g of forebrain tissue per 80 mL Tris and centrifuged at 39,000×g for 10 min. The pellet was resuspended in the same volume of Tris buffer containing 5 mM MgCl2 with several brief pulses from a Polytron homogenizer. This particulate preparation was used for the delta opioid binding assays. Following incubation with the delta selective peptide ligand ˜4 nM [^3H]DPDPE or 0.25 nM [^3H]naltrindole at 25° C. for 2.5 h in a 96-well plate with total volume of 1 mL, the plate contents were filtered through Wallac filtermat B sheets on a Tomtec 96-well harvester. The filters were rinsed three times with 2 mL of 10 mM HEPES (pH 7.4), and dried in a 650 W microwave oven for 1.75 min twice. To each sample area 2×50 μL of Betaplate Scint scintillation fluid (LKB) was added and the radioactivity was quantified on a LKB (Wallac) 1205 BetaPlate liquid scintillation counter.
# Analysis: The data from the scintillation counter were used to calculate either the % inhibition compared to control binding (when only a single concentration of test compound was evaluated) or a Ki value (when a range of concentrations was tested). Percent inhibition was calculated as: [(total dpm−test compound dpm)/(total dpm−nonspecific dpm)]*100. Kd and Ki values were calculated using GraphPad PRISM data analysis program.
# δ-opioid receptor = biological target: T2, δ-opioid receptor (Mus musculus, UniProt P32300); assay: [35S]GTPγS binding assay in NG108-15 cell membranes (delta opioid functional assay); type: biochemical; settings: for GTPγS δ-RelEfficacy @200 nM: 200 nM compound, relative to calculated max of SNC80 dose response
# T2 construct: NG108-15 cell membranes were purchased from Applied Cell Sciences (Rockville, Md.); host or cells: NG108-15 cell membranes (purchased)
# Experimental: Methods: NG108-15 cell membranes were purchased from Applied Cell Sciences (Rockville, Md.). 5 mg/mL of membrane protein was suspended in 10 mM TRIS-HCl pH 7.2, 2 mM EDTA, 10% sucrose. Membranes were maintained at 4-8° C. A 1 mL volume of membranes was added into 10 mL cold binding assay buffer. The assay buffer contained 50 mM Tris, pH 7.6, 5 mM MgCl2, 100 mM NaCl, 1 mM DTT and 1 mM EGTA. The membrane suspension was homogenized twice with a Polytron, and centrifuged at 3000 rpm for 10 min. The supernatant was then centrifuged at 18,000 rpm for 20 min. Ten mL of assay buffer was added into the pellet containing tube. The pellet and buffer were mixed with a Polytron.
# Incubation procedure: The pellet membranes (75 μg/mL) were preincubated with SPA beads (10 mg/mL) at 25° C. for 45 min in the assay buffer. The SPA beads (5 mg/mL) coupled with membranes (37.5 μg/mL) were then incubated with 0.1 nM [^35S]GTPγS in the same Tris buffer containing 100 μM GDP in total volume of 200 μL. 200 nM of receptor agonists was used to stimulate [^35S]-GTPγS binding. The basal binding was tested in the absence of agonists and non-specific binding was tested in the presence of 10 μM unlabeled GTPγS.
# Data % of Basal=(stimulated−non specific)*100/(basal−non specific). Relative Efficacy of a compound at 200 nM=(% of Basal of test compound at 200 nM)/(Calculated Max of SNC80 dose response. Curve in prism).
# [1] = rat forebrain membranes, ~4 nM [3H]DPDPE, read-out: δ-binding (DPDPE ligand) Ki
# [2] = read-out: GTPγS δ-opioid receptor EC50
# [3] = [3H]naltrindole ligand, read-out: δ-binding (Naltrindole ligand) Ki
# T2 sequence (P32300 whole entry): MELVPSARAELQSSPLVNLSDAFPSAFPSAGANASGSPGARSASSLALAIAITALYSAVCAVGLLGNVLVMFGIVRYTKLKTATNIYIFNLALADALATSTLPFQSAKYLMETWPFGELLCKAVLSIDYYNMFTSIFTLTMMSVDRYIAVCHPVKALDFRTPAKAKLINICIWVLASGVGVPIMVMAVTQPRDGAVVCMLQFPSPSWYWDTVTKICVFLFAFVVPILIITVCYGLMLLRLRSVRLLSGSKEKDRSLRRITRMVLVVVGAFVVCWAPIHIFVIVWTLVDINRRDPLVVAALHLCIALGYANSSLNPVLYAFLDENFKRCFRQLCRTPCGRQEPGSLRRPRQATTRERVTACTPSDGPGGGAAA
# T1 sequence (P33533 whole entry): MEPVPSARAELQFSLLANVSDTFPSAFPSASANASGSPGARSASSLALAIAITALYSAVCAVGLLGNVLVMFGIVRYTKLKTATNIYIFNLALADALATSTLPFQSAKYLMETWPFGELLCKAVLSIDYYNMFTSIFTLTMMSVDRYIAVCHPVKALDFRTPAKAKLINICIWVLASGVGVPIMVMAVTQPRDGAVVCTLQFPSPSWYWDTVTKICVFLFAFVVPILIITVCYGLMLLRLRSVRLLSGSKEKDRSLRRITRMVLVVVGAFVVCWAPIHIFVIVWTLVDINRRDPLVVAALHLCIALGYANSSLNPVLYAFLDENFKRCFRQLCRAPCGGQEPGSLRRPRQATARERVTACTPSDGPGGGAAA
SMILES,Ki (delta opioid receptor; [1]) [nM],GTPγS δ-opioid receptor Rel Efficacy (δ-opioid receptor),EC50 (δ-opioid receptor; [2]) [nM],Ki (delta opioid receptor; [3]) [nM],GTPγS δ-RelEfficacy @200 nM (δ-opioid receptor),Ki (delta opioid receptor) [nM],EC50 (δ-opioid receptor) [nM]
COc1ccc(Oc2nc(-c3cncnc3)cnc2NC[C@@H]2CCCN2)cc1 [Cpd 5],2.7,1.0984,349,,,,
CCc1ccc(Oc2nc(-c3cncnc3)cnc2NC[C@@H]2CCCN2)cc1 [Cpd 6],32.3,1.1553,460,,,,
c1ncc(-c2cnc(NC[C@@H]3CCCN3)c(Oc3ccc4c(c3)OCO4)n2)cn1 [Cpd 7],491,,,,,,
COc1ccc(Oc2nc(-c3cncnc3)cnc2NC[C@@H]2CCCN2)c(F)c1 [Cpd 9],1.2,1.1022,281,,,,
Clc1ccc(Oc2nc(-c3cncnc3)cnc2NC[C@@H]2CCCN2)cc1 [Cpd 10],,,,1.1,0.2150,,
Clc1cccc(Oc2nc(-c3cncnc3)cnc2NC[C@@H]2CCCN2)c1 [Cpd 11],,,,1.8,0.2102,,
"Clc1ccccc1Oc1nc(-c2cncnc2)cnc1NC[C@@H]1CCCN1 [Cpd 12, [3-(2-Chloro-phenoxy)-5-pyrimidin-5-yl-pyrazin-2-yl]-pyrrolidin-2-(S)-ylmethyl-amine]",,,,0.7,0.2356,,
CC(=O)Nc1cccc(Oc2nc(-c3cncnc3)cnc2NC[C@@H]2CCCN2)c1 [Cpd 13],,,,4,0.0800,,
c1cn(-c2ccc(Oc3nc(-c4cncnc4)cnc3NC[C@@H]3CCCN3)cc2)cn1 [Cpd 14],,,,411,,,
"Oc1cccc(Oc2nc(-c3cncnc3)cnc2NC[C@@H]2CCCN2)c1 [Cpd 15, 3-{6-Pyrimidin-5-yl-3-[(pyrrolidin-2-(S)-ylmethyl)-amino]-pyrazin-2-yloxy}-phenol]",,,,0.4,,,
COc1ccc(Cc2nc(-c3cccnc3)cnc2NC[C@@H]2CCCN2)cc1 [Cpd 16],,0.3985,7320,15,,,
"COc1ccc(Cc2nc(-c3cncnc3)cnc2NC[C@@H]2CCCN2)cc1 [Cpd 17, [3-(4-Methoxy-benzyl)-5-pyrimidin-5-yl-pyrazin-2-yl]-pyrrolidin-2-(S)-ylmethyl-amine]",,,,19.9,0.1065,,
N#Cc1ccc(Oc2nc(-c3cncnc3)cnc2NC[C@@H]2CCCN2)cc1 [Cpd 18],,,,76.4,0.1065,,
COc1ccc(Oc2nc(-c3cncc(C#N)c3)cnc2NC[C@H](C)N)cc1 [Cpd 19],,,,0.3,,,
COc1ccc(Oc2nc(-c3cncnc3)cnc2NC[C@H](C)N)cc1 [Cpd 20],,1.0287,50.5,0.6,0.6890,,
COc1ccc(Oc2nc(-c3cncc(C#N)c3)cnc2NCC2(N)CCCC2)cc1 [Cpd 21],,,,0.6,0.2481,,
COc1ccc(Oc2nc(-c3cncnc3)cnc2NCC2(N)CCCC2)cc1 [Cpd 22],,,,2.9,0.2384,,
COc1ccc(Cc2nc(-c3cncc(C#N)c3)cnc2NC[C@@H]2CCCN2)cc1 [Cpd 23],,,,2.4,0.1174,,

SMILES,Ki (delta opioid receptor; [1]) [nM],GTPγS δ-opioid receptor Rel Efficacy (δ-opioid receptor),EC50 (δ-opioid receptor; [2]) [nM],Ki (delta opioid receptor; [3]) [nM],GTPγS δ-RelEfficacy @200 nM (δ-opioid receptor),Ki (delta opioid receptor) [nM],EC50 (δ-opioid receptor) [nM]
COc1ccc(Oc2nc(-c3cncc(C#N)c3)cnc2NC[C@@H]2CCCN2)cc1 [Cpd 24],,,,0.2,0.1669,,
COc1ccc(Oc2nc(-c3cncc(C#N)c3)cnc2NC[C@@H]2CCCN2)cc1F [Cpd 25],,1.0387,31.3,0.2,0.9130,,
COc1ccc(Oc2nc(-c3cncc(C#N)c3)cnc2NC[C@@H]2CCCN2)c(F)c1 [Cpd 26],,1.0534,27.1,0.2,1.0180,,
N#CCc1ccc(Oc2nc(-c3cncc(C#N)c3)cnc2NC[C@@H]2CCCN2)cc1 [Cpd 27],,1.0035,34.2,6.4,0.9179,,
Cc1ccc(Oc2nc(-c3cncc(C#N)c3)cnc2NC[C@@H]2CCCN2)cn1 [Cpd 28],,,,13.2,0.1492,,
N#Cc1cncc(-c2cnc(NC[C@@H]3CCCN3)c(Oc3ccc(OC(F)F)cc3)n2)c1 [Cpd 29],,,,0.3,0.0000,,
"COc1ccc(Oc2nc(-c3cncc(C#N)c3)cnc2N2CCNCC2)cc1 [Cpd 30, 5-[3′-(4-Methoxy-phenoxy)-3,4,5,6-tetrahydro-2H-[1,2′]bipyrazinyl-5′-yl]-nicotinonitrile]",,1.1345,111,0.1,0.5999,,
COc1ccc(Oc2nc(-c3cccnc3)cnc2N2CCNCC2)cc1 [Cpd 31],,1.0012,8.1,0.3,0.7579,,
c1ncc(-c2cnc(NC[C@@H]3CCCN3)c(Oc3ccc4c(c3)CCO4)n2)cn1 [Cpd 33],,,,4.3,,,
COc1ccc(Oc2nc(-c3cncc(C#N)c3)cnc2N[C@H]2CC[C@H](N)CC2)cc1 [Cpd 34],,,,,,0.7,
COc1ccc(Oc2nc(-c3cncc(C#N)c3)cnc2N[C@H]2CC[C@@H](N)CC2)cc1 [Cpd 35],,1.2053,,,0.4157,0.4,95.2
N#Cc1cncc(-c2cnc(NC[C@@H]3CCCN3)c(Oc3ccc(OC(F)(F)F)cc3)n2)c1 [Cpd 36],,0.9719,29.7,1.4,0.5598,,
CCc1ccc(Oc2nc(-c3cncc(C#N)c3)cnc2NC[C@@H]2CCCN2)cc1 [Cpd 37],,,,0.5,0.3353,,
"N#Cc1cncc(-c2cnc(NC[C@@H]3CCCN3)c(Oc3cccc(O)c3)n2)c1 [Cpd 38, 5-{6-(3-Hydroxy-phenoxy)-5-[(pyrrolidin-2-(S)-ylmethyl)-amino]-pyrazin-2-yl}-nicotinonitrile]",,1.1104,66.6,0.086,0.6472,,
N#Cc1cncc(-c2cnc(NC[C@@H]3CCCN3)c(Oc3ccc4occc4c3)n2)c1 [Cpd 39],,1.0736,4.6,0.2,1.0765,,
N#Cc1cncc(-c2cnc(NC[C@@H]3CCCN3)c(Oc3ccc4[nH]ccc4c3)n2)c1 [Cpd 40],,1.1190,39.3,,0.6606,,
N#Cc1cncc(-c2cnc(NC[C@@H]3CCCN3)c(Oc3ccccc3Cl)n2)c1 [Cpd 41],,1.2922,298,,0.3049,,
N#Cc1cncc(-c2cnc(NC[C@@H]3CCCN3)c(Oc3cccc(Cl)c3)n2)c1 [Cpd 42],,1.1894,84.4,,0.7111,,
